According to ChEMBL document CHEMBL1671837, “[I]-Celecoxib Analogues as SPECT Tracers of Cyclooxygenase-2 in Inflammation” (ACS Med Chem Lett, 2011):
Activity calls are given as the source filed them. The rule behind the calls is not given here.

Experiments:
[1] = target: T1, Prostaglandin G/H synthase 1 (Ovis aries, UniProt P05979); assay: Inhibition of ovine purified COX1 after 20 mins
T1 sequence (P05979 whole entry): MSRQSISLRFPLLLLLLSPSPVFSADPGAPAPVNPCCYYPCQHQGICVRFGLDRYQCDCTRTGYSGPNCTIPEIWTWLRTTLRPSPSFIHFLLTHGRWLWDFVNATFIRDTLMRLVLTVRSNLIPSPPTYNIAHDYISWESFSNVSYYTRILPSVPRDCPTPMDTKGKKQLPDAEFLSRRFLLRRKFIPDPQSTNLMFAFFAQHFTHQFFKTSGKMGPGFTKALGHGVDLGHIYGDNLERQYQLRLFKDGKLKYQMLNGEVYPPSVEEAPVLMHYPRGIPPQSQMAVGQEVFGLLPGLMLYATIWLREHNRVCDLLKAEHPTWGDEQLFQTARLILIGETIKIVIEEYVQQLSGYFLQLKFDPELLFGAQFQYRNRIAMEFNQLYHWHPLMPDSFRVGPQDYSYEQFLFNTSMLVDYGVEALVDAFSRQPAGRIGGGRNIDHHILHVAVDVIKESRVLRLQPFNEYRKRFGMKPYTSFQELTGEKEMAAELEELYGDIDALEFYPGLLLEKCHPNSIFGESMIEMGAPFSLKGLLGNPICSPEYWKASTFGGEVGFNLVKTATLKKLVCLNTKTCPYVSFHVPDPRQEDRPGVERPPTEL

[2] = target: T2, Prostaglandin G/H synthase 1 (Mus musculus) (UniProt P22437); assay: Inhibition of COX1 in mouse LPS-stimulated RAW264.7 cells at up to 5 uM after 30 mins; assay type: cell-based
T2 sequence (whole entry): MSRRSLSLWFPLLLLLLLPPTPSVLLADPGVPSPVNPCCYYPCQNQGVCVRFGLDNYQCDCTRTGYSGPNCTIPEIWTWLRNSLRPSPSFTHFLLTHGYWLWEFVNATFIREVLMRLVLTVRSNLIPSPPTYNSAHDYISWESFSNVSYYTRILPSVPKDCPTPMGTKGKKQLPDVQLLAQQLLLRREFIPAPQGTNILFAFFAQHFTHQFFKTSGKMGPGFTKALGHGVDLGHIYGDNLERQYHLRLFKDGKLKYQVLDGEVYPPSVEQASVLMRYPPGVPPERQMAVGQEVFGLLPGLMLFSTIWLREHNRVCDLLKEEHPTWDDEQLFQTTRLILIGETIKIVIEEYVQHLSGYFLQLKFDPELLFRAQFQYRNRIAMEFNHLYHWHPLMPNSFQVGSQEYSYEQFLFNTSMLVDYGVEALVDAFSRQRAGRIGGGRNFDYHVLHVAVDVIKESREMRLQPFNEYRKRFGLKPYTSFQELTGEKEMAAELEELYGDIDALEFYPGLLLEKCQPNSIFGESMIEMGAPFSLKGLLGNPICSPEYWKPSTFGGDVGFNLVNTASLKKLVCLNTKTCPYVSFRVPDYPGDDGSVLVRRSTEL

[3] = target: T3, Prostaglandin G/H synthase 2 (Mus musculus, UniProt Q05769); assay: Inhibition of COX2 in mouse LPS-stimulated RAW264.7 cells after 30 mins; assay type: cell-based
T3 sequence (Q05769 whole entry): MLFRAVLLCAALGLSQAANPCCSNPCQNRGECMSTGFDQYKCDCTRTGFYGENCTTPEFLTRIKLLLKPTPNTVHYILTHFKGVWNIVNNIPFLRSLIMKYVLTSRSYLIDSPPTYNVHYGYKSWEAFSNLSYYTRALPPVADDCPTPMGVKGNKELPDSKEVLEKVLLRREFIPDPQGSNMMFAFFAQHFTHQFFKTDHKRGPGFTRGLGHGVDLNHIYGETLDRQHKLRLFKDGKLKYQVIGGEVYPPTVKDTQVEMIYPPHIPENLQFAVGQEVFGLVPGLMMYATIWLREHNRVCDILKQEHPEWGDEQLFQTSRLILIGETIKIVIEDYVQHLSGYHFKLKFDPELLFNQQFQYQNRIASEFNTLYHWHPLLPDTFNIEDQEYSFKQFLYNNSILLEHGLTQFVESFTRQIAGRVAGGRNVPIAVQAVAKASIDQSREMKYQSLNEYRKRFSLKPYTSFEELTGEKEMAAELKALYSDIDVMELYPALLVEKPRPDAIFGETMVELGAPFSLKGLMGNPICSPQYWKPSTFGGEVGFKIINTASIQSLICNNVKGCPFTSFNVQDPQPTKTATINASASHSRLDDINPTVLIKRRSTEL

Compound | IC50 [1] [µM] | inhibition [2] | IC50 [3] [µM]
COC(=O)c1cc(-c2cccc(I)c2)n(-c2ccc(S(N)(=O)=O)cc2)n1 | > 4 |  | 
COC(=O)c1cc(-c2ccc(I)cc2)n(-c2ccc(S(C)(=O)=O)cc2)n1 | > 4 |  | 
COC(=O)c1cc(-c2cccc(I)c2)n(-c2ccc(S(C)(=O)=O)cc2)n1 | > 4 |  | 
COC(=O)c1cc(-c2ccc(I)cc2)n(-c2ccc(S(N)(=O)=O)cc2)n1 | > 4 |  | 

Further lines, results first:

IC50 [1] [µM] | inhibition [2] | IC50 [3] [µM] | Compound
> 4 |  |  | NS(=O)(=O)c1ccc(-n2nc(CCC(=O)O)cc2-c2ccc(I)cc2)cc1
> 4 | inactive | 0.03 | CS(=O)(=O)c1ccc(-n2nc(C(F)(F)F)cc2-c2ccc(I)cc2)cc1
> 4 |  | 2.7 | CCOC(=O)c1cc(-c2ccc(I)cc2)n(-c2ccc(S(N)(=O)=O)cc2)n1
> 4 |  |  | CS(=O)(=O)c1ccc(-n2nc(C(F)(F)F)cc2-c2cccc(I)c2)cc1
> 4 |  |  | NS(=O)(=O)c1ccc(-n2nc(CCC(=O)O)cc2-c2cccc(I)c2)cc1
